These results are taken from ChEMBL document CHEMBL4680309, “Discovery of a potent β-catenin destabilizer for overcoming the resistance of 5-fluorouracil in colorectal cancer” (Bioorg Med Chem, 2021).

Active and inactive are the calls of the source. No cut-off for these calls is given here.

Test [1] relates to HCT-8. The test can be described thus: Cytotoxicity against human HCT-8 cells assessed as reduction in cell viability at 100 uM incubated for 72 hrs by SRB assay. The format is functional, cell-based. In general terms: In SRB staining, fixed cells bind dye roughly in proportion to their protein.
The subject of test [2] is HCT-8. The test can be described thus: Cytotoxicity against human HCT-8 cells assessed as reduction in cell viability incubated for 72 hrs by SRB assay. The conditions noted are these: HCT-8, 72 h.
Test [3] deals with HCT-116. The test can be described thus: Cytotoxicity against human HCT-116 cells assessed as reduction in cell viability incubated for 72 hrs by SRB assay. To be noted: HCT-116, 72 h.
The subject of test [4] is HCT-8. The test is described as follows: Cytotoxicity against 5-FU resistant human HCT-8 cells assessed as reduction in cell viability incubated for 72 hrs by SRB assay. The test is classed as functional, cell-based. The conditions noted are these: HCT-8, 72 h.
Test [5] can be described thus: Resistance index, ratio of IC50 for cytotoxicity against 5-FU resistant human HCT-8 cells to IC50 for cytotoxicity against human HCT-8 cells. The test is classed as functional.
Test [6] relates to HCT-116. The test is described as follows: Cytotoxicity against human HCT-116 cells harboring p53 knock out gene assessed as reduction in cell viability incubated for 72 hrs by SRB assay. The test is classed as functional, cell-based. The conditions noted are these: HCT-116, 72 h.
The nature of test [7]: Resistance index, ratio of IC50 for cytotoxicity against human HCT-116 cells harboring p53 knock out gene to IC50 for cytotoxicity against human HCT-116 cells. The test is classed as functional.
The test system of test [8] is SW480. The test can be described thus: Cytotoxicity against human SW480 cells assessed as reduction in cell viability incubated for 72 hrs by SRB assay. The conditions noted are these: SW480, 72 h.
A short description of test [9]: Cytotoxicity against human RKOE6 cells assessed as reduction in cell viability incubated for 72 hrs by SRB assay. To be noted: RKOE6, 72 h.
For test [10], the system named is HT-29. The test is described as follows: Cytotoxicity against human HT-29 cells assessed as reduction in cell viability incubated for 72 hrs by SRB assay. To be noted: HT-29, 72 h.
The subject of test [11] is LoVo. The test can be described thus: Cytotoxicity against human LoVo cells assessed as reduction in cell viability incubated for 72 hrs by SRB assay.
Test [12] relates to HCT-8. The test can be described thus: Inhibition of Wnt/beta-Catenin signaling in human HCT-8 cells assessed as reduction in beta-catenin level incubated for 24 hrs by Western blot analysis. The format is cell-based. The conditions noted are these: dose 20-100 µM. (Immunoblotting shows a protein as a band on a membrane.)
Test [13] relates to HCT-8. The test can be described thus: Inhibition of Wnt/beta-Catenin signaling in 5-FU resistant human HCT-8 cells assessed as reduction in beta-catenin level incubated for 24 hrs by Western blot analysis. The test is classed as cell-based. The conditions noted are these: dose 20-100 µM.
Test [14] relates to HCT-8. The test can be described thus: Inhibition of Wnt/beta-Catenin signaling in human HCT-8 cells assessed as reduction in c-myc expression incubated for 24 hrs by Western blot analysis. The format is cell-based. To be noted: dose 20-100 µM.
The subject of test [15] is HCT-8. The test is described as follows: Inhibition of Wnt/beta-Catenin signaling in human HCT-8 cells assessed as reduction in survivin expression incubated for 24 hrs by Western blot analysis. The conditions noted are these: dose 20-100 µM. The format is cell-based.
In test [16] the test system is HCT-8. The test is described as follows: Inhibition of Wnt/beta-Catenin signaling in human HCT-8 cells assessed as reduction in cyclin D1 expression incubated for 24 hrs by Western blot analysis. The format is cell-based. To be noted: dose 20-100 µM.
For test [17], the system named is HCT-8. The test is described as follows: Inhibition of Wnt/beta-Catenin signaling in 5-FU resistant human HCT-8 cells assessed as reduction in c-myc expression incubated for 24 hrs by Western blot analysis. The test is classed as cell-based. To be noted: dose 20-100 µM.
In test [18] the test system is HCT-8. The test is described as follows: Inhibition of Wnt/beta-Catenin signaling in 5-FU resistant human HCT-8 cells assessed as reduction in survivin expression incubated for 24 hrs by Western blot analysis. The test is classed as cell-based. The conditions noted are these: dose 20-100 µM.
Test [19] concerns HCT-8. The test can be described thus: Inhibition of Wnt/beta-Catenin signaling in 5-FU resistant human HCT-8 cells assessed as reduction in cyclin D1 expression incubated for 24 hrs by Western blot analysis. The format is cell-based. The conditions noted are these: dose 20-100 µM.
Test [20] has as its system HCT-8. The test can be described thus: Effect on beta-Catenin mRNA expression in 5-FU resistant human HCT-8 cells at 50 to 100 uM incubated for 24 hrs by qRT-PCR analysis. The test is classed as functional, cell-based. The conditions noted are these: dose 50-100 µM.
The subject of test [21] is HCT-8. The test can be described thus: Effect on beta-Catenin mRNA expression in human HCT-8 cells at 50 uM incubated for 24 hrs by qRT-PCR analysis. The test is classed as functional, cell-based. (In general: Real-time PCR tracks product formation cycle by cycle.)
Test [22] has as its system HCT-8. The test is described as follows: Effect on beta-Catenin mRNA expression in human HCT-8 cells at 100 uM incubated for 24 hrs by qRT-PCR analysis. The test is classed as functional, cell-based.
The target of test [23] is T1, Catenin beta-1 (Homo sapiens) (UniProt P35222).
T1 sequence (whole entry): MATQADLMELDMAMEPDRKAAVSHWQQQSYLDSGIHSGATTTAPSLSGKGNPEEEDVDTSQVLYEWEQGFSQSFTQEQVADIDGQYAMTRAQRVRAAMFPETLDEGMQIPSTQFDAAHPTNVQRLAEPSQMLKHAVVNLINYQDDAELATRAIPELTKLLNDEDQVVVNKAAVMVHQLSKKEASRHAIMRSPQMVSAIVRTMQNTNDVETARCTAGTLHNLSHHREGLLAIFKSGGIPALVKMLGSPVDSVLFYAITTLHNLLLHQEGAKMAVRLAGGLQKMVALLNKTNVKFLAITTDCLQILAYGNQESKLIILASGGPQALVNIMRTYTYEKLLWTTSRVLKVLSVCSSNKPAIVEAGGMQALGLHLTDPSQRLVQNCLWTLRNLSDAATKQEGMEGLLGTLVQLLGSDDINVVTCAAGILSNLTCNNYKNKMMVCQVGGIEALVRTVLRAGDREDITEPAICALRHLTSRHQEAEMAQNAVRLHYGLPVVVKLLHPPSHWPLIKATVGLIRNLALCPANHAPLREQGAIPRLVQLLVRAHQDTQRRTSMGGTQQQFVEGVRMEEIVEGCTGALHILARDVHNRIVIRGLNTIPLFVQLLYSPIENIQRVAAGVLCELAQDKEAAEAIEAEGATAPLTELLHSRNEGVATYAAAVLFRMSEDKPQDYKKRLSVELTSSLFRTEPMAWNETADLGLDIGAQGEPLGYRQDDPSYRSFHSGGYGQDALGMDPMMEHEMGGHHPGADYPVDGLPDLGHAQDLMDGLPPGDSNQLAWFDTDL
The test can be described thus: Degradation of beta-Catenin in human HCT-8 cells assessed as reduction in Wnt-3a-induced beta-Catenin level at 50 to 100 uM incubated for 24 hrs by Western blot analysis. The test is classed as cell-based. To be noted: dose 50-100 µM.

Test [24] has as its target T1, Catenin beta-1 (Homo sapiens). The test can be described thus: Degradation of beta-catenin (unknown origin) transfected in human HCT-8 cells assessed as reduction in cell viability at 50 uM incubated for 24 hrs by SRB assay. The test is classed as cell-based.
Test [25] shares this target. The test can be described thus: Degradation of beta-catenin (unknown origin) transfected in 5-FU resistant human HCT-8 cells assessed as reduction in cell viability at 50 uM incubated for 24 hrs by SRB assay. The test is classed as cell-based.
The target is the same in test [26]. The test can be described thus: Degradation of beta-catenin (unknown origin) transfected in human HCT-8 cells assessed as reduction in c-myc mRNA expression at 50 uM incubated for 24 hrs by qRT-PCR analysis. The test is classed as cell-based.
The target is the same in test [27]. The test is described as follows: Degradation of beta-catenin (unknown origin) transfected in human HCT-8 cells assessed as reduction in survivin mRNA expression at 50 uM incubated for 24 hrs by qRT-PCR analysis. The test is classed as cell-based.
For test [28] the target is unchanged. The test can be described thus: Degradation of beta-catenin (unknown origin) transfected in human HCT-8 cells assessed as reduction in cyclin D1 mRNA expression at 50 uM incubated for 24 hrs by qRT-PCR analysis. The test is classed as cell-based.
The target is the same in test [29]. The test can be described thus: Degradation of beta-catenin (unknown origin) transfected in 5-FU resistant human HCT-8 cells assessed as reduction in c-myc mRNA expression at 50 uM incubated for 24 hrs by qRT-PCR analysis. The format is cell-based.
Test [30] has the same target. The test is described as follows: Degradation of beta-catenin (unknown origin) transfected in 5-FU resistant human HCT-8 cells assessed as reduction in survivin mRNA expression at 50 uM incubated for 24 hrs by qRT-PCR analysis. The format is cell-based.
Test [31] shares this target. The test is described as follows: Degradation of beta-catenin (unknown origin) transfected in 5-FU resistant human HCT-8 cells assessed as reduction in cyclin D1 mRNA expression at 50 uM incubated for 24 hrs by qRT-PCR analysis. The format is cell-based.

As a reminder, the IC50 is the concentration that inhibits the measured activity by half.

With `CCCCc1ccc2n1CCC[C@H]1OC(=O)[C@@H](C)[C@H]21`, the inhibition entry in [1] is “inactive”.

Take `CC[C@@H]1C(=O)O[C@@H]2CCCn3cccc3[C@@H]12`: in test [1], the inhibition result is “inactive”.

Consider `O=c1[nH]cc(F)c(=O)[nH]1` [FLUOROURACIL], for which the IC50 in test [2] came out at 2.2 µM; in [3], 1.7 µM; in test [4] it was 47 µM; in test [6] it was 4.3 µM. Besides, the “Ratio IC50” value in test [5] is 21; in test [7], 2.5.

Consider `C=C1C(=O)O[C@@H]2CCCn3c(C=O)ccc3[C@@H]12`, for which, in test [1], the inhibition entry was “inactive”.

For `C=C1C(=O)O[C@@H]2CCCn3cccc3[C@@H]12`, in test [1], the inhibition result is “inactive”. The IC50 in test [2] is 11 µM; in test [3], 13 µM; in [8] it was 16.8 µM; in test [9], 7.93 µM; in test [10], 8.52 µM; in test [11] it was 10.2 µM. The 50% inhibitory concentration (IC50) was 11 µM in [4] and 14 µM in test [6]. The “Ratio IC50” value in [5] and in test [7] was 1 throughout. Further, the inhibition entry in test [12], in [13], in test [14], in [15], in test [16] and in test [17] was “Dose-dependent effect” in each case. In addition, the inhibition entry in test [18] and in test [19] was “Dose-dependent effect” in each case. For the same molecule, the outcome in [20], in test [22], in [24], in [25], in [26] and in [27] was inactive. In addition, the outcome in [28], in [29], in [30] and in [31] was inactive. In addition, the outcome in test [21] and in test [23] was Active.

As for `CC[C@H]1C(=O)O[C@@H]2CCCn3cccc3[C@H]21`, the inhibition entry in test [1] is “inactive”.
